Experiments:
rat EP4 receptor [1] = target: T1, rat EP4 receptor (Rattus norvegicus, UniProt P43114); assay: Evaluation test of rat EP4 receptor affinity ([3H]PGE2 binding, membrane fraction of HEK293 cells expressing rat EP4); set-up: expressed in transfected cells; host or cells: HEK293 cells, transient transfection with Lipofectamine 2000; membrane fraction; details: [3H]PGE2 0.3 nM
Procedure: Evaluation Test of Rat EP4 Receptor Affinity
Cell Culturing and Transfection
Using a 10 cm collagen-coated dish (Asahi Glass), HEK293 cells were cultured in D-MEM culture medium, the culture medium was removed at a confluence (90 to 100% density state) and washed with a phosphate buffer saline (PBS), and then the cells were detached with N,N,N′,N′-tetrakis(carboxymethyl)ethylenediamine (EDTA). The number of the cells were counted and seeded on a 15 cm collagen-coated dish to a confluence of 70%. On the next day, to an Opti-MEM culture medium at 1.2 mL/dish was added Lipofectamine 2000 (Invitrogen) at 60 μL/dish, followed by leaving to stand at room temperature for 5 minutes. A plasmid in which rat EP4 (Sequence Number 1) had been inserted into a TA cloning site of pcDNA3.1-V5-His-topo was added thereto at 15 μg/dish. After leaving to stand at room temperature for 30 minutes, the resultant was added to the dish and cultured for 20 to 24 hours. The cell culture was carried out in a CO2 incubator (37° C., 5% CO2).
Preparation of Membrane Fraction
The culture medium was removed by suction, 10 mL of cooled PBS was added thereto per 15 cm dish, and the cells were scraped using a cell scraper (Sumitomo Bakelite). They were washed with cooled PBS (1,200 rpm, 4° C., 5 min), and then suspended in 6 mL of cooled 20 mM Tris-HCl (pH 7.4; Nakalai Tesque Inc., including 5 mM EDTA (Nakalai Tesque Inc.) per dish and the resultant was homogenized using a Polytron and the homogenate was centrifuged (26,000 rpm, 20 min, 4° C.). The obtained precipitate was resuspended in cooled 20 mM Tris-HCl and homogenized again using a Polytron, and the homogenate was centrifuged (26,000 rpm, 20 min, 4° C.). The obtained precipitate was resuspended in 50 mM HEPES (pH 7.5; Dojindo Laboratories) at 1 mL per dish, homogenized using a Polytron, and freeze-stored at −80° C. as a membrane fraction. At this time, a part thereof was used for the measurement of the protein concentration. Measurement of the protein concentration was carried out in duplicate using a Bio-Rad Protein assay kit (Bio-Rad Laboratories) in accordance with the appended standard Protocol.
[^3H]PGE2 50 μL (final concentration 0.3 nM; Perkin Elmer), 100 μL (20 μg/well) of a membrane fraction prepared from the rat EP4 expression cell and 50 μL of a test compound were mixed in a 96-well microplate (Sumitomo Bakelite), incubated at room temperature for 1 hour, filtered by suction on a UniFilter-96 GF/B (Perkin Elmer) using a FilterMate Harvester (Perkin Elmer), and then washed three times with 300 μL/well of a cooled assay buffer. Dilution of [^3H]PGE2 and the membrane fraction was carried out using an assay buffer (50 mM HEPES, 10 mM MgCl2), and dilution of the test compound and the unlabeled PGE2 was carried out using DMSO and an assay buffer. Further, in the case of the addition of a human serum albumin (HSA), dilution was carried out using an assay buffer containing 4% HSA (final concentration 1%; Sigma). The UniFilter-96 GF/B was treated preliminarily by washing twice with 200 μL/well of a cooled assay buffer. The UniFilter-96 GF/B after filtration was dried in a dryer overnight, 50 μL/well of MicroScint20 (Perkin Elmer) was added thereto, and then the radioactivity was measured using a TopCount (Perkin Elmer). For measurement of the non-specific binding, an unlabeled PGE2 (final concentration 1 μM; Cayman) was added. All of the measurements were carried out in duplicate, and the specific binding amount was determined by subtracting the non-specific binding amount from the total binding amount. The Ki value was calculated according to the general methods.
In the connection, Ex represents the below-described Example Compound number.

rat EP4 receptor [2] = target: T1, rat EP4 receptor; assay: In vivo rat EP4 receptor antagonistic activity (ONO-4819/LPS, plasma TNF-α); details: SD rat, oral
Procedure: Evaluation Test of In Vivo Rat EP4 Receptor Antagonistic Activity
A solution of PEG 400:20% Tween 80:aqueous 1 M NaHCO3 solution=1:4:5 of a test compound was orally administered to a SD rat (male, 6-week old) under non-fasting conditions, and after 1 hour, ONO-4819 was administered subcutaneously to the back of the rat. After 30 minutes, Lipopolysaccharide (LPS, 0.01 mg/kg) was administered to the tail vein without anesthesia, and after 60 minutes, 0.5 mL of heparin blood was collected from the fundus under ether anesthesia. The blood sample was centrifuged (3000 rpm, 10 minutes) to separate the plasma, and then the TNF-α concentration in the rat plasma was measured by an ELISA kit (see Hepatology Research Journal, vol. 21, 252-260, 2001). A value obtained by subtracting the TNF-α concentration of the group treated with ONO-4819 from the TNF-α concentration of the group not treated with ONO-4819 was taken as 100%, and the inhibitory rates to the value were calculated for the test compounds.
In this connection, Ex represents the below-described Example compound number.

T1 sequence (P43114 whole entry): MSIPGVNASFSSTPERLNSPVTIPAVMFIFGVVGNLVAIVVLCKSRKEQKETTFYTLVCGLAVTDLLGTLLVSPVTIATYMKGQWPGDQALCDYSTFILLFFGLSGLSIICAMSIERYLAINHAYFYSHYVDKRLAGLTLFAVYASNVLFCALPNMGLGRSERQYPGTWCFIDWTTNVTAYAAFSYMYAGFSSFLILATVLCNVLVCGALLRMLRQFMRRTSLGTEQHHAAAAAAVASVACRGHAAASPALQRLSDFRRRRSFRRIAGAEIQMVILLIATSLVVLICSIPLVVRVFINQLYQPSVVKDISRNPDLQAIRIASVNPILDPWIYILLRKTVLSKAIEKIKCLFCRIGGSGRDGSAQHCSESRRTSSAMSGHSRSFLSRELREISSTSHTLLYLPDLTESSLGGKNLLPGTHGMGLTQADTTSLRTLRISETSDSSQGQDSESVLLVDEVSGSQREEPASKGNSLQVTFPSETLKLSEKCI

Row | SMILES | Ki (rat EP4 receptor [1]) [nM] | also measured
1 | C[C@H](NC(=O)c1cccc2ccn(Cc3ccc(-c4ccccc4)nc3)c12)c1ccc(C(=O)O)cc1 [Example 4, 4-{(1S)-1-[({1-[(6-phenylpyridin-3-yl)methyl]-1H-indol-7-yl}carbonyl)amino]ethyl}benzoic acid] | 0.82 | 
2 | C[C@H](NC(=O)c1cccc2ccn(Cc3ccc(Cl)cc3)c12)c1ccc(C(=O)NS(=O)(=O)CCCO)cc1 [Example 6, 1-(4-chlorobenzyl)-N-[(1S)-1-(4-{[(3-hydroxypropyl)sulfonyl]carbamoyl}phenyl)ethyl]-1H-indole-7-carboxamide] | 31 | 
3 | CN(NC(=O)c1cccc2ccn(CCOc3ccc(Cl)cc3)c12)c1ccc(C(=O)O)cc1 [Example 23] | 0.35 | Inhibitory rate (%) (rat EP4 receptor [2]; dose 0.01 mg/kg): 51%
4 | O=C(NC[C@H]1CC[C@H](C(=O)O)CC1)c1cccc2ccn(Cc3ccc(Cl)cc3)c12 [Example 32] | 12 | 
5 | O=C(NC[C@H]1CC[C@H](C(=O)O)CC1)c1cc(Cl)cc2ccn(Cc3ccc(Cl)cc3)c12 [Example 52] | 1.8 | 
6 | O=C(NC[C@H]1CC[C@H](C(=O)O)CC1)c1cc(C(F)(F)F)cc2ccn(Cc3ccc(Cl)cc3)c12 [Example 69] | 1.4 | 
7 | Cc1cc(C(=O)NC[C@H]2CC[C@H](C(=O)O)CC2)c2c(ccn2Cc2ccc3ccccc3n2)c1 [Example 96] | 1.7 | Inhibitory rate (%) (rat EP4 receptor [2]; dose 0.01 mg/kg): 57%; melting point: 244 to 245 °C (dec.)
8 | C[C@H](NC(=O)c1cccc2ccn(Cc3ccc(-c4ccccc4)cn3)c12)c1ccc(C(=O)O)cc1 [Example 115] | 1 | Inhibitory rate (%) (rat EP4 receptor [2]; dose 0.03 mg/kg): 60%
9 | C[C@H](NC(=O)c1cccc2ccn(Cc3ccc(N4CCCCC4)nc3)c12)c1ccc(C(=O)O)cc1 [Example 132] | 2.6 | 
10 | O=C(NC[C@H]1CC[C@@H](C(=O)O)CC1)c1cccc2ccn(Cc3ccc(Cl)cc3)c12 [Example 137] | 9.1 | 
11 | C[C@H](NC(=O)c1cccc2ccn(Cc3coc(-c4ccccc4)n3)c12)c1ccc(C(=O)O)cc1 [Example 140] | 0.61 | 
12 | O=C(O)c1ccc(CNC(=O)c2cc(Cl)cc3ccn(Cc4cc5ccccc5cn4)c23)cc1 [Example 143] | 1 | Inhibitory rate (%) (rat EP4 receptor [2]; dose 0.03 mg/kg): 70%
13 | O=C(NC[C@H]1CC[C@H](C(=O)O)CC1)c1cc(Cl)cc2ccn(Cc3cc4ccccc4cn3)c12 [Example 146] | 1.8 | Inhibitory rate (%) (rat EP4 receptor [2]; dose 0.01 mg/kg): 88%
14 | O=C(NC[C@H]1CC[C@H](C(=O)O)CC1)c1cc(C(F)(F)F)cc2ccn(Cc3cc4ccccc4cn3)c12 [Example 159] | 2.1 | Inhibitory rate (%) (rat EP4 receptor [2]; dose 0.03 mg/kg): 68%
15 | C[C@H](NC(=O)c1cccc2ccn(CCOC3CCCCC3)c12)c1ccc(C(=O)O)cc1 [Example 164] | 6.3 | 
16 | O=C(O)c1ccc(CNC(=O)c2cccc3ccn(Cc4cc5ccccc5o4)c23)cc1 [Example 187] | 0.75 | Inhibitory rate (%) (rat EP4 receptor [2]; dose 0.03 mg/kg): 58%
17 | O=C(NC[C@H]1CC[C@H](C(=O)O)CC1)c1cccc2ccn(Cc3cc4ccccc4o3)c12 [Example 188] | 1.2 | Inhibitory rate (%) (rat EP4 receptor [2]; dose 0.01 mg/kg): 88%
18 | O=C(NC[C@H]1CC[C@H](C(=O)O)CC1)c1cccc2ccn(Cc3cc4ccccc4s3)c12 [Example 206] | 1.2 | Inhibitory rate (%) (rat EP4 receptor [2]; dose 0.01 mg/kg): 72%
19 | CN(NC(=O)c1cccc2ccn(Cc3csc(-c4ccccc4)n3)c12)c1ccc(C(=O)O)cc1 [Example 207] | 1.1 | Inhibitory rate (%) (rat EP4 receptor [2]; dose 0.03 mg/kg): 83%
20 | O=C(O)c1ccc(CNC(=O)c2cc(Cl)cc3ccn(Cc4csc(-c5ccccc5)n4)c23)cc1 [Example 208] | 1.8 | Inhibitory rate (%) (rat EP4 receptor [2]; dose 0.01 mg/kg): 35%

Row | SMILES | Ki (rat EP4 receptor [1]) [nM] | also measured
21 | O=C(NC[C@H]1CC[C@H](C(=O)O)CC1)c1cc(Cl)cc2ccn(Cc3csc(-c4ccccc4)n3)c12 [Example 209] | 1.9 | 
22 | O=C(NC[C@H]1CC[C@H](C(=O)O)CC1)c1cc(Cl)cc2ccn(CCOc3ccc(Cl)cc3)c12 [Example 210] | 1.3 | Inhibitory rate (%) (rat EP4 receptor [2]; dose 0.03 mg/kg): 67%
23 | O=C(O)c1ccc(CNC(=O)c2cc(Cl)cc3ccn(CCOc4ccc(Cl)cc4)c23)cc1 [Example 211] | 1.7 | Inhibitory rate (%) (rat EP4 receptor [2]; dose 0.01 mg/kg): 43%
24 | O=C(O)c1ccc(CNC(=O)c2cc(C(F)(F)F)cc3ccn(Cc4csc(-c5ccccc5)n4)c23)cc1 [Example 212] | 2.4 | Inhibitory rate (%) (rat EP4 receptor [2]; dose 0.01 mg/kg): 52%
25 | O=C(NC[C@H]1CC[C@H](C(=O)O)CC1)c1cc(C(F)(F)F)cc2ccn(Cc3csc(-c4ccccc4)n3)c12 [Example 213] | 2 | Inhibitory rate (%) (rat EP4 receptor [2]; dose 0.01 mg/kg): 75%
26 | O=C(NC[C@H]1CC[C@H](C(=O)O)CC1)c1cc(C(F)(F)F)cc2ccn(Cc3ccc(-c4ccccc4)cn3)c12 [Example 214] | 2.2 | Inhibitory rate (%) (rat EP4 receptor [2]; dose 0.01 mg/kg): 62%
27 | O=C(NC[C@H]1CC[C@H](C(=O)O)CC1)c1cc(C(F)(F)F)cc2ccn(Cc3cccc(Cl)n3)c12 [Example 216] | 16 | 
28 | O=C(NC[C@H]1CC[C@H](C(=O)O)CC1)c1cc(C(F)(F)F)cc2ccn(Cc3cnc4ccccc4c3)c12 [Example 217] | 3 | 
29 | O=C(NC[C@H]1CC[C@H](C(=O)O)CC1)c1cc(C(F)(F)F)cc2ccn(Cc3ccc4cccnc4c3)c12 [Example 218] | 2.9 | 
30 | O=C(NC[C@H]1CC[C@H](C(=O)O)CC1)c1cc(C(F)(F)F)cc2ccn(Cc3cccc4cccnc34)c12 [Example 219] | 3.3 | 
31 | O=C(NC[C@H]1CC[C@H](C(=O)O)CC1)c1cc(C(F)(F)F)cc2ccn(Cc3cccc4cnccc34)c12 [Example 220] | 16 | 
32 | O=C(NC[C@H]1CC[C@H](C(=O)O)CC1)c1cc(C(F)(F)F)cc2ccn(Cc3ccc4ncccc4c3)c12 [Example 222] | 2.8 | 
33 | O=C(NC[C@H]1CC[C@H](C(=O)O)CC1)c1cc(C(F)(F)F)cc2ccn(Cc3ccc4ccncc4c3)c12 [Example 223] | 3.5 | 
34 | O=C(NC[C@H]1CC[C@H](C(=O)O)CC1)c1cc(F)cc2ccn(Cc3cc4ccccc4cn3)c12 [Example 225] | 2.1 | Inhibitory rate (%) (rat EP4 receptor [2]; dose 0.003 mg/kg): 77%
35 | O=C(NC[C@H]1CC[C@H](C(=O)O)CC1)c1c(F)ccc2ccn(Cc3cc4ccccc4cn3)c12 [Example 226] | 2.8 | 
36 | O=C(NC[C@H]1CC[C@H](C(=O)O)CC1)c1cc(Cl)cc2ccn(Cc3cc4ccccc4o3)c12 [Example 227] | 1.7 | melting point: 228 to 230 °C
37 | O=C(NC[C@H]1CC[C@H](C(=O)O)CC1)c1cc(C(F)(F)F)cc2ccn(Cc3cc4ccccc4o3)c12 [Example 228] | 2.1 | 
38 | O=C(NC[C@H]1CC[C@H](C(=O)O)CC1)c1cc(C(F)(F)F)cc2ccn(Cc3ccc(Cl)cn3)c12 [Example 229] | 3.9 | melting point: 224 to 226 °C (dec.)
39 | O=C(NC[C@H]1CC[C@H](C(=O)O)CC1)c1cc(C(F)(F)F)cc2ccn(Cc3cc4cc(Cl)ccc4o3)c12 [Example 231] | 1.4 | melting point: 211 to 213 °C

— patent publication US8598355B2, “Amide compound” (Astellas Pharma Inc., priority 2008, dated 2013)
